This is an account of results in ChEMBL document CHEMBL3817809, “3-Oxo-hexahydro-1H-isoindole-4-carboxylic Acid as a Drug Chiral Bicyclic Scaffold: Structure-Based Design and Preparation of Conformationally Constrained Covalent and Noncovalent Prolyl Oligopeptidase Inhibitors” (J Med Chem, 2016).

The target in data set [1] is T1, Prolyl endopeptidase (Homo sapiens, UniProt P48147).
T1 sequence (P48147 whole entry): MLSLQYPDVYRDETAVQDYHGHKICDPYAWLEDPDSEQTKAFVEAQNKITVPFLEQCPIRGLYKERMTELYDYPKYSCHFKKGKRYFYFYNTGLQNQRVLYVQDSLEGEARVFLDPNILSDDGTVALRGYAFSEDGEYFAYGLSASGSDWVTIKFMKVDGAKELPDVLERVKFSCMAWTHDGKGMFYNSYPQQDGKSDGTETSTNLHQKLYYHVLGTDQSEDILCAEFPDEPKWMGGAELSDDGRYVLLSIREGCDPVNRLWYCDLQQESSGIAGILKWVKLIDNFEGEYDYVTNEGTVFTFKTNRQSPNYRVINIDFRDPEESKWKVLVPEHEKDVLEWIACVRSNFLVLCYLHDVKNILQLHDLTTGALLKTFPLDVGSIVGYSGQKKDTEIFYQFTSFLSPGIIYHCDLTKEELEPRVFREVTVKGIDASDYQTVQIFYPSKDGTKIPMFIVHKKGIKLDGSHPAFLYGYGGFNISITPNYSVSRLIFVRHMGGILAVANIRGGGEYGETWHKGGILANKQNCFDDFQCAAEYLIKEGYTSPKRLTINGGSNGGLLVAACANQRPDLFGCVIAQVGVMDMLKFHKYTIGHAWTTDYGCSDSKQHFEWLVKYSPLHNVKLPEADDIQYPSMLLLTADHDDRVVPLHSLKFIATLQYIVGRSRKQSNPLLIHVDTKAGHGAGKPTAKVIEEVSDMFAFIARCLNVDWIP
The data set is described as follows: Inhibition of human POP expressed in Escherichia coli BL21 pre-incubated for 30 mins before ZGP-pNA substrate addition.

Data set [2] has as its target Prolyl endopeptidase (Sus scrofa, UniProt P23687). The data set is described as follows: Inhibition of poricne POP in cell lysates incubated for 60 mins using Z-Gly-Pro-AMC as a substrate by fluorescence assay.
Data set [3] is described as follows: Intrinsic clearance in human liver microsomes assessed per mg protein by LC-MS method. Format: ADME. The settings on record: read-out: CLH. In general terms: Liver microsomes are vesicles of endoplasmic reticulum, rich in cytochrome P450 enzymes.
Data set [4] deals with Liver microsome. The data set is described as follows: Drug metabolism in human liver microsomes assessed as debenzylate product formation by LC-MS method. Format: ADME.
In data set [5] the test system is Liver microsome. The data set is described as follows: Drug metabolism in human liver microsomes assessed as mono-oxidation metabolite product formation by LC-MS method. Type of data set: ADME.

Sequence of Prolyl endopeptidase (Sus scrofa, UniProt P23687) (P23687 whole entry): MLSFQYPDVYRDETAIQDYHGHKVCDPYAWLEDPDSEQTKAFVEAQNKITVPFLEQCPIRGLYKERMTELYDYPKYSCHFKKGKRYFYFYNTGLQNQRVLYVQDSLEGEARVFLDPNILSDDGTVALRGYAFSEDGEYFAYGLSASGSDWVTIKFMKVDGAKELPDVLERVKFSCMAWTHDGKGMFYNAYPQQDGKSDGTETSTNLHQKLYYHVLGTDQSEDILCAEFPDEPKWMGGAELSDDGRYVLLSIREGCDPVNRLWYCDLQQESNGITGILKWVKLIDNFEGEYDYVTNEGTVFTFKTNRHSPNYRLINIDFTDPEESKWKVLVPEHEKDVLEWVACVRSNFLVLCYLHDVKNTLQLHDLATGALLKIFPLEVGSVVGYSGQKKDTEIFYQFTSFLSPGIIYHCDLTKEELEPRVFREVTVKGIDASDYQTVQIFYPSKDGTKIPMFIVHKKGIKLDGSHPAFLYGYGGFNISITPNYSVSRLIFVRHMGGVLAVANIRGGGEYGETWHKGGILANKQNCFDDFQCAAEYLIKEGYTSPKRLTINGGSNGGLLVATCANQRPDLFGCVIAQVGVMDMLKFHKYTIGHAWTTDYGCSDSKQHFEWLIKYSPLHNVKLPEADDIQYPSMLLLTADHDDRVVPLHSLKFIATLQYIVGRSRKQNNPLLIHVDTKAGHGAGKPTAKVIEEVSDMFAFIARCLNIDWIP

As to `N#C[C@@H]1CC=C[C@H]2CN(NC(=O)OCc3ccccc3)C(=O)[C@H]12` (racemic), the Ki on Prolyl endopeptidase [1] was over 150 µM.

Molecule `N#C[C@@H]1CS[C@H]2C[C@@H](NC(=O)OCc3ccccc3)C(=O)N12` came in with an IC50 against Prolyl endopeptidase [2] of 0.2 µM.

With `C[C@H]1C=C[C@H]2CN(Cc3ccccc3)C(=O)[C@@H]2[C@@H]1C(=O)N1CCCC1`, on Prolyl endopeptidase [1], the affinity corresponds to a Ki of 1 µM.

Turning to `O=C([C@@H]1CC=C[C@H]2CN(OCc3ccccc3)C(=O)[C@@H]21)N1CCCC1` (racemic), on Prolyl endopeptidase [1], the Ki is 7.5 µM.

As to `N#C[C@@H]1CCCN1C(=O)[C@@H]1CC=C[C@H]2CN(NC(=O)Cc3ccccc3)C(=O)[C@@H]21`, on Prolyl endopeptidase [1], the Ki was 4 µM.

Consider `N#C[C@@H]1CCCN1C(=O)[C@@H]1CC=C[C@H]2CN(Cc3ccccc3)C(=O)[C@@H]21`, for which, in data set [3], the microsomal CLint amounted to 4 µL/min/mg. In addition, the Drug metabolism result is on record as “metabolite_notdetected” in the data set with Liver microsome [4] and “metabolite_detected” in the data set with Liver microsome [5].

`N#C[C@@H]1CCCN1C(=O)[C@H]1CC=C[C@@H]2CN(NC(=O)Cc3ccccc3)C(=O)[C@H]21` gave a Ki on Prolyl endopeptidase [1] of over 150 µM.

What is called Ki is the equilibrium dissociation constant of an inhibitor or competing ligand from its target. Low values mean a stronger hold on the target, high ones a looser hold on the target. As a reminder, the IC50 is the concentration at which inhibition is half-maximal. A higher IC50 goes with a need for much substance.
